Data on one compound can be found in US5407925A (priority 1991, dated 1995).

In one data set the test system is murine leukemia cells. To be noted: Hilton 1984; cited from earlier work.
Another data set concerns McF-7. Particulars: breast cancer cell line McF-7; cited from earlier work.
Data set [1] deals with human breast cancer cells. To be noted: Kubota et al. 1983; cited from earlier work.
A further data set relates to cells in vitro. To be noted: compared with 4-hydrocyclophosphamide, Redwood et al. 1982; cited from earlier work.
Data set [2] concerns Burkitt's lymphoma cell lines. To be noted: De Fabritiis et al. 1985; cited from earlier work.
Data set [3] has as its system TE-671. The experiment in a line: intrathecal treatment of subarachnoid TE-671 human medulloblastoma xenografts in nude rats. Particulars: for loss of antigravity strength / increase in median survival: intrathecal. It is filed as in vivo, Female athymic nude rats; human medulloblastoma cell line.
The nature of data set [4]: clinical evidence of toxicity of intrathecal treatment in tumor-bearing nude rats. Particulars: either dose (final concentration 100 uM or 250 uM).
For data set [5] the following is noted: direct intrathecal administration, 100 uM in the cerebrospinal fluid; cited from earlier work.
Data set [6] concerns rhabdomyosarcoma cell line. To be noted: cited from earlier work.
Data set [7] has as its system TE-671. To be noted: medulloblastoma cell line TE-671; cited from earlier work.
The next data set deals with MOLT-4. Particulars: MOLT-4 (a T-cell leukemia); cited from earlier work.
Setting [8] is: final concentration 250 uM, p less than 0.01.

For the compound `O=P1(N(CCCl)CCCl)NC(OO)CCO1` (stereo not shown) [4-HC, 4-hydroperoxycyclophosphamide], the activity in vitro result (with murine leukemia cells; in data set [1]; in data set [2]) was “active in vitro” throughout. Moreover, the “concentration at which active” value is 9.5 µM in the data set with McF-7, 8 µM in data set [6], 12.8 µM with TE-671 [7] and 2.5 µM with MOLT-4. The “toxicity on a molar basis to cells in vitro versus 4-hydrocyclophosphamide” value in the data set with cells in vitro is “equal toxicity on a molar basis”. Further, the “time by which loss of stepping and placing reflexes and ramp climbing ability preceded death” value in the data set with TE-671 [3] (both treatment studies (100 uM and 250 uM)) is on record as “approximately 3 days”. Further, the “loss of antigravity strength” value is reported as “delay in the loss of antigravity strength” in the data set on TE-671 [3] (final CSF concentration 100 uM, day 8 after tumor inoculation, p=0.036) and “further delay in the loss of antigravity strength” with TE-671 [3] (setting [8]). Further, the “increase in median survival” value in the data set on TE-671 [3] (final CSF concentration 100 uM, day 8 after tumor inoculation, p=0.04) was found to be 20%; with TE-671 [3] (setting [8]), 36%. Moreover, the “histopathology after death: subarachnoid tumor infiltrate” value with TE-671 [3] (sections from all animals, 4-HC-treated and saline-treated control groups, base of the brain to the cauda equina) is listed as “diffuse subarachnoid infiltrate of tumor cells”. The “clinical evidence of toxicity” value in data set [4] is recorded as “no clinical evidence of toxicity”. The toxicity result in [5] is listed as “without producing toxicity”.
